Laboratory results reported in US11597917B2, “In vitro and in vivo enrichment strategy targeting lymphocytes derived from vector transduced HSCs for therapy of disorders” (THE MEDICAL COLLEGE OF WISCONSIN, INC., priority 2017, dated 2023).

Assays:
[1] = test system: Fabry mice; experiment: In vivo enrichment in Fabry mice engrafted with transduced HSPCs: observation of toxicities; conditions: 0.15% MMF medicated chow ad libitum, 2 months of treatment
Experimental: Briefly, male and female Fabry mice aged 2-5 months of age are treated with 5-fluorouracil (5-FU) to deplete bone marrow cells and enrich for HSPCs. Four days after treatment these mice are euthanized, and bone marrow is isolated from femurs and tibia, and processed for transduction. Cells are cultured in stem cell media and transduced using lentivirus described above for 12 hours at a multiplicity of infection (MOI) of 10. Transduced cells are then harvested and prepared for administration to recipient mice. Recipients are male Fabry mice aged approximately 2 months. These are irradiated prior to engrafting transduced cells to deplete their own hematopoietic system. Some cells are retained in culture for an extra 48 hours to assay transduction. Mice are kept on prophylactic antibiotics as support during immune recovery. Engraftment of transduced cells is assessed by measuring VCN/genome in circulation using a qPCR-based assay and comparing to a standard curve, and by measuring plasma α-gal A activity. MMF medicated chow may be started after stable engraftment has been achieved, typically after 4 months. […] A baseline bleed was done to confirm engraftment and the mice were given 0.15% MMF capsule (TEVA generics, Israel) medicated chow ad libitum, and bled every 15 days to observe changes in plasma α-gal A activity, which is a measure of enrichment. […]

[2] = test system: Jurkat cells; experiment: In vitro enrichment of transduced Jurkat cells with MPA: vector copy number per genome by qPCR; format: cell-based; conditions: Jurkat cells transduced with dual promoter vector; 0.5 μM MPA vs DMSO, 16 days; FIG. 4C
Experimental: (§1) In this Example, Jurkat cells (immortalized T cells) are used. […] 3 cell lines were generated by transducing Jurkat cells with the vectors described or with protamine sulphate only as a mock. VCN/genome was adjusted by dilution of the transduced cells with mock transduced cells. Each of these were seeded in 4 replicates and either treated with DMSO (vehicle) or 0.5 μM MPA. Fresh media with drug or vehicle was added after centrifuging the cells and discarding old media every two days. Samples were taken for cell counts. After 16 days of treatment, cells were reseeded for recovery in fresh media for a total of four days, after which they were counted and reseeded again for two days for α-gal A activity assay or one day for gDNA.
VCN was determined by comparison to a standard curve using a qPCR based method and normalized to the number of beta actin (ACTB) copies to determine a per genome value. Patterned bars in the chart refer to samples treated with DMSO and solid bars refer to those treated with MPA.

[3] = test system: Jurkat cells; experiment: α-gal A activity (4-MUG substrate) in lysates and supernatants of transduced Jurkat cells after MPA enrichment; format: cell-based; conditions: Jurkat cells transduced with dual promoter vector; 0.5 μM MPA, 16 days, then recovery; FIGS. 4E and 4F
Experimental: as §1

[4] = test system: Jurkat cells; experiment: Glucocerebrosidase activity in supernatant of transduced Jurkat cells after MPA enrichment (fluorometric assay); format: cell-based; conditions: cells transduced with GBA+(IY) virus and treated with MPA (0.5 μM, 16 days); FIG. 13
Experimental: Jurkat cells were transduced with lentivirus at an MOI of ˜0.1-0.2. Cells were cultured for at least 2 weeks prior to measuring baseline vector copy number. Cell lines for each of LV/GBA+eGFP and LV/GBA+(IY), or non-transduced cells were produced in this way. To measure enrichment, testing was carried out as described in Example 2. Briefly, cells at known densities were seeded in quadruplicate for each cell line, and maintained in culture for 16 days with either vehicle (DMSO) or 0.5 μM MPA, with media being replaced every two days. After treatment, cells were diluted and recovered for 4-8 days. gDNA was extracted from cells sampled from each well, and vector copy number analyses were carried out using qPCR. Cells from each well were also seeded at known and equal densities for 72 hours, after which supernatant was collected, cleared of cells and debris, and glucocerebrosidase activity measured using a fluorometric assay. Briefly, supernatants were incubated for 1 hour with substrate solution containing 4-methylumbelliferyl-beta-D-glucopyranoside (15 mM). The reaction was quenched with 0.1M glycine at pH 10 and fluorescence of the reaction product quantified against a calibration curve of the product.

SMILES | drug-related toxicities [1] | increase in the vector copy number of the total population per genome [2] [fold] | α-gal A activity in cell lysates and culture supernatants [3] | enzyme activity in cell culture supernatant [4]
COc1c(C)c2c(c(O)c1C/C=C(\C)CCC(=O)OCCN1CCOCC1)C(=O)OC2 [MMF, mycophenolate mofetil] | No drug-related toxicities were observed | – | – | –
COc1c(C)c2c(c(O)c1C/C=C(\C)CCC(=O)O)C(=O)OC2 [MPA, mycophenolic acid] | – | ~8 | corresponding increase in α-gal A activity | increased enzyme activity
